According to patent EP3650451A1, “COMPOUNDS AND THEIR USES AS FLUORESCENT PROBES” (Consejo Superior de Investigaciones Cientificas, priority 2017, dated 2019):

Legend:
[1] = Photophysical characterization: absorption and fluorescence spectra; assay type: physicochemical; conditions: for λfl: Fluorescence peak wavelength: excitation at 490 nm; for φf: Quantum yield: reference PM567 in ethanol
Protocol: The photophysical characterization of probes 3 and 4 was carried out analyzing the corresponding absorption and fluorescence spectra in the UV-visible region of the spectrum.
Its photophysical behavior is dependent on the degree of substitution of the BODIPY, since the alkylation of the chromatophore induces sufficient steric hindrance to reduce the free rotation of the 8-mesityl group, a process that entails a significant reduction in fluorescence efficiency. Thus, probe 4 in water stands out for having a high molar absorption coefficient (3.8 × 10^4 M^-1 cm^-1 at 499 nm) and a very efficient fluorescence emission at 511 nm, with a quantum yield of up to 80%.

[2] = tested on: SCC38 cells; assay: Co-localization by co-staining with MitoTracker Red, fluorescence microscopy of live cells; assay type: cell-based, human; conditions: compound 4 50 nM, MitoTracker® Red 25 nM, 30 minutes
Protocol: The cell assays were carried out on two human cell lines: SCC38 and HeLa. The SCC38 line is derived from human laryngeal epidermoid carcinoma patients, while HeLa, the first human cell line established in culture, is derived from cervical cancer. The culture medium used for both cell lines was DMEM (Dulbecco's Modified Eagle's Medium) supplemented with 10% of fetal bovine serum (FBS), 100 U/mL of penicillin, 200 µg/mL of streptomycin, 100 µmol/L of non-essential amino acids and 2 mmol/L of glutamine. The cultures were incubated at 37 °C and 5% of CO2.
These cell lines were stained with the fluorescent probes synthesized following the following protocol: 30,000-50,000 SCC38 cells were plated on 24-well glass-bottomed plates and cultured to 70% confluence. The culture medium was then removed from the well and washed at least three times with DMEM medium without additives. Next, 1 mL of DMEM and the corresponding fluorescent compound was added to the well. The cells were incubated at 37 °C for 30 minutes, after which the medium was removed and newly washed with DMEM. Lastly, complete medium was added and the cells were observed under the microscope. Microscopy analysis was performed using a Zeiss Axio Observer Z1 microscope with AxioCam MRM and ApoTome 2 (Carl Zeiss, Germany) with different 40X 63X oil immersion objectives. The cells were also stained with MitoTracker® Red CMXRos (Thermo Fisher), following the manufacturer's instructions, with the aim of carrying out comparative studies with the new fluorescent markers synthesized herein. Initially, both compounds 3 and 4 were used at a concentration of 50 nM, and staining time was also 30 minutes.
In order to confirm the specificity of the mitochondrial labeling, co-localization studies were carried out by co-staining with the commercial mitochondrial marker MitoTracker® Red in the cell line. Compound 4 was used at a concentration of 50 nM and MitoTracker® Red at 25 nM. Both compounds were added simultaneously and incubated for 30 minutes.

photostability [1]: high photostability | kfl: Radiative decay constant ([1]; Acetone): 1.27 10^8s^- 1 | knr: Non-Radiative decay constant ([1]; Acetone): 0.16 10^8s^- 1 | Δv: Stokes shift ([1]; Acetone): 504 cm⁻¹ | εmax: Molar extinction coefficient at the absorption peak ([1]; Acetone): 5.1 × 10^4 (M^-1 cm^- 1) | λab: Absorption peak wavelength ([1]; Acetone): 501 nm | τ: Fluorescence lifetime ([1]; Acetone): 7.00 ns | λfl: Fluorescence peak wavelength ([1]; Acetone): 514 nm | φf: Quantum yield ([1]; Acetone): 0.89 | kfl: Radiative decay constant ([1]; Acetonitrile): 1.21 10^8s^- 1 | knr: Non-Radiative decay constant ([1]; Acetonitrile): 0.20 10^8s^- 1 | Δv: Stokes shift ([1]; Acetonitrile): 469 cm⁻¹ | εmax: Molar extinction coefficient at the absorption peak ([1]; Acetonitrile): 4.9 × 10^4 (M^-1 cm^- 1) | λab: Absorption peak wavelength ([1]; Acetonitrile): 500 nm | τ: Fluorescence lifetime ([1]; Acetonitrile): 7.12 ns | λfl: Fluorescence peak wavelength ([1]; Acetonitrile): 512 nm | φf: Quantum yield ([1]; Acetonitrile): 0.86 | kfl: Radiative decay constant ([1]; Chloroform): 1.36 10^8s^- 1 | knr: Non-Radiative decay constant ([1]; Chloroform): 0.22 10^8s^- 1 | Δv: Stokes shift ([1]; Chloroform): 424 cm⁻¹ | εmax: Molar extinction coefficient at the absorption peak ([1]; Chloroform): 4.8 × 10^4 (M^-1 cm^- 1) | λab: Absorption peak wavelength ([1]; Chloroform): 504 nm | τ: Fluorescence lifetime ([1]; Chloroform): 6.32 ns | λfl: Fluorescence peak wavelength ([1]; Chloroform): 514 nm | φf: Quantum yield ([1]; Chloroform): 0.86 | kfl: Radiative decay constant ([1]; Ethanol): 1.22 10^8s^- 1 | knr: Non-Radiative decay constant ([1]; Ethanol): 0.18 10^8s^- 1 | Δv: Stokes shift ([1]; Ethanol): 427 cm⁻¹ | εmax: Molar extinction coefficient at the absorption peak ([1]; Ethanol): 5.1 × 10^4 (M^-1 cm^- 1) | λab: Absorption peak wavelength ([1]; Ethanol): 502 nm | τ: Fluorescence lifetime ([1]; Ethanol): 7.10 ns | λfl: Fluorescence peak wavelength ([1]; Ethanol): 513 nm | φf: Quantum yield ([1]; Ethanol): 0.87 | kfl: Radiative decay constant ([1]; Water): 1.14 10^8s^- 1 | knr: Non-Radiative decay constant ([1]; Water): 0.23 10^8s^- 1 | Δv: Stokes shift ([1]; Water): 470 cm⁻¹ | εmax: Molar extinction coefficient at the absorption peak ([1]; Water): 3.8 × 10^4 (M^-1 cm^- 1) | λab: Absorption peak wavelength ([1]; Water): 499 nm | τ: Fluorescence lifetime ([1]; Water): 7.30 ns | λfl: Fluorescence peak wavelength ([1]; Water): 511 nm | φf: Quantum yield ([1]; Water): 0.83 | fluorescence emission (wavelength) ([1]; in water): 511 nm | quantum yield ([1]; in water): up to 80% | molar absorption coefficient ([1]; in water, at 499 nm): 38000 M⁻¹ cm⁻¹
Compound: CC1=CC(C)=[N+]2C1=C(c1c(C)cc(C)cc1C)c1c(C)cc(C)n1[B-]21OC(=O)C[C@H](C[N+](C)(C)C)O1 (stereo partly drawn) [Compound 4]
tendency towards H- or J- type aggregation ([1]; concentrations as high as 10^-4 M): not exhibit any tendency towards H- or J- type aggregation | location of the stain in the mitochondria ([2]; co-staining): preferably located in its interior (the mitochondrial matrix) | co-localization with MitoTracker® Red ([2]; added simultaneously): good co-localization | cytotoxic effects ([2]; simultaneous co-staining): without interferences or cytotoxic effects
